Results as given in US10206394B2, “Herbicidal compounds” (Syngenta Participations AG, priority 2014, dated 2019).
Read-outs that look alike come from different tables or passages of the source.

Experiments:
Test in all cases: Glasshouse assay for herbicidal activity (pre- and post-emergence), percentage phytotoxicity
Format in all cases: in vivo
[1] = tested on: Avena fatua (AVEFA); conditions: Avena fatua
Outline: (§1)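 Potted test plants in standard soil received the compound pre-emergence (day 1) or post-emergence (about day 12). Evaluation: visual damage score from 0% (none) to 100% (total), 15 days after application post-emergence, 20 days pre-emergence.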

[2] = tested on: Alopecurus myosuroides (ALOMY); conditions: Alopecurus myosuroides
Outline: as §1

[3] = tested on: Lolium perenne (LOLPE); conditions: Lolium perenne
Outline: as §1

[4] = tested on: Echinochloa crus-galli (ECHCG); conditions: Echinochloa crus-galli
Outline: as §1

[5] = post-emergence, 360 h, Rate 250 g/ha, post-emergence, visual assessment 15 DAA, 100%=total damage, 0%=no damage, read-out: Post-emergence herbicidal activity (percentage phytotoxicity) AVEFA POST
[6] = pre-emergence, 480 h, Rate 250 g/ha, pre-emergence, visual assessment 20 DAA, 100%=total damage, 0%=no damage, read-out: Pre-emergence herbicidal activity (percentage phytotoxicity) AVEFA PRE
[7] = post-emergence, 360 h, Rate 250 g/ha, post-emergence, visual assessment 15 DAA, 100%=total damage, 0%=no damage, read-out: Post-emergence herbicidal activity (percentage phytotoxicity) ALOMY POST
[8] = pre-emergence, 480 h, Rate 250 g/ha, pre-emergence, visual assessment 20 DAA, 100%=total damage, 0%=no damage, read-out: Pre-emergence herbicidal activity (percentage phytotoxicity) ALOMY PRE
[9] = post-emergence, 360 h, Rate 250 g/ha, post-emergence, visual assessment 15 DAA, 100%=total damage, 0%=no damage, read-out: Post-emergence herbicidal activity (percentage phytotoxicity) LOLPE POST
[10] = pre-emergence, 480 h, Rate 250 g/ha, pre-emergence, visual assessment 20 DAA, 100%=total damage, 0%=no damage, read-out: Pre-emergence herbicidal activity (percentage phytotoxicity) LOLPE PRE
[11] = post-emergence, 360 h, Rate 250 g/ha, post-emergence, visual assessment 15 DAA, 100%=total damage, 0%=no damage, read-out: Post-emergence herbicidal activity (percentage phytotoxicity) ECHCG POST
[12] = pre-emergence, 480 h, Rate 250 g/ha, pre-emergence, visual assessment 20 DAA, 100%=total damage, 0%=no damage, read-out: Pre-emergence herbicidal activity (percentage phytotoxicity) ECHCG PRE
[13] = post-emergence, 360 h, POST-emergence, rate 250 g/ha, visual score 15 DAA (100%=total damage, 0%=no damage), read-out: Post-emergence herbicidal activity (percentage phytotoxicity) AVEFA POST
[14] = pre-emergence, 480 h, PRE-emergence, rate 250 g/ha, visual score 20 DAA (100%=total damage, 0%=no damage), read-out: Pre-emergence herbicidal activity (percentage phytotoxicity) AVEFA PRE
[15] = post-emergence, 360 h, POST-emergence, rate 250 g/ha, visual score 15 DAA (100%=total damage, 0%=no damage), read-out: Post-emergence herbicidal activity (percentage phytotoxicity) ALOMY POST
[16] = pre-emergence, 480 h, PRE-emergence, rate 250 g/ha, visual score 20 DAA (100%=total damage, 0%=no damage), read-out: Pre-emergence herbicidal activity (percentage phytotoxicity) ALOMY PRE
[17] = post-emergence, 360 h, POST-emergence, rate 250 g/ha, visual score 15 DAA (100%=total damage, 0%=no damage), read-out: Post-emergence herbicidal activity (percentage phytotoxicity) LOLPE POST
[18] = pre-emergence, 480 h, PRE-emergence, rate 250 g/ha, visual score 20 DAA (100%=total damage, 0%=no damage), read-out: Pre-emergence herbicidal activity (percentage phytotoxicity) LOLPE PRE
[19] = post-emergence, 360 h, POST-emergence, rate 250 g/ha, visual score 15 DAA (100%=total damage, 0%=no damage), read-out: Post-emergence herbicidal activity (percentage phytotoxicity) ECHCG POST
[20] = pre-emergence, 480 h, PRE-emergence, rate 250 g/ha, visual score 20 DAA (100%=total damage, 0%=no damage), read-out: Pre-emergence herbicidal activity (percentage phytotoxicity) ECHCG PRE

Compound Cc1cc(-c2ncc(Cl)cn2)cc(C)c1C1C(=O)CC(CC(=O)NCc2cccc(F)c2)C1=O (stereo not drawn) [Compound B337] has a pest or weed control at 250 g/ha [1, 5] of 100%, a pest or weed control at 250 g/ha [1, 6] of 90% and a pest or weed control at 250 g/ha [2, 7] of 100%. The pest or weed control at 250 g/ha [2, 8] was 90%, the pest or weed control at 250 g/ha [3, 9] was 100% and the pest or weed control at 250 g/ha [3, 10] was 90%. For the same compound, the pest or weed control at 250 g/ha [4, 11] was 100% and the pest or weed control at 250 g/ha [4, 12] was 90%.
Compound C/C=C/c1cc(C)c(C2C(=O)CC(CC(=O)NCc3cccc(F)c3)C2=O)c(C)c1 (stereo not drawn) [Compound B242] has a pest or weed control at 250 g/ha [1, 13] of 90%, a pest or weed control at 250 g/ha [1, 14] of 0% and a pest or weed control at 250 g/ha [2, 15] of 90%. It also gave a pest or weed control at 250 g/ha [2, 16] of 0%, a pest or weed control at 250 g/ha [3, 17] of 100% and a pest or weed control at 250 g/ha [3, 18] of 0%. For the same compound, the pest or weed control at 250 g/ha [4, 19] was 100% and the pest or weed control at 250 g/ha [4, 20] was 0%.
In the case of Cc1cc(C)c(C2=C(OC(=O)C(C)(C)C)CC(CC(=O)N(C(=O)C(C)(C)C)C3(C)COC3)C2=O)c(C)c1 (stereo not drawn) [Compound P14], the pest or weed control at 250 g/ha [1, 5] was 80%, the pest or weed control at 250 g/ha [1, 6] was 10% and the pest or weed control at 250 g/ha [2, 7] was 80%. For the same compound, the pest or weed control at 250 g/ha [2, 8] was 70%, the pest or weed control at 250 g/ha [3, 9] was 80% and the pest or weed control at 250 g/ha [3, 10] was 70%. For the same compound, the pest or weed control at 250 g/ha [4, 11] was 70% and the pest or weed control at 250 g/ha [4, 12] was 70%.
Work on CCc1cc(OCC(F)(F)F)cc(C)c1C1C(=O)CC(CC(=O)NCc2cccc(F)c2)C1=O (stereo not drawn) [Compound B214] yielded a pest or weed control at 250 g/ha [1, 13] of 100%, a pest or weed control at 250 g/ha [1, 14] of 90% and a pest or weed control at 250 g/ha [2, 15] of 100%. For the same compound, the pest or weed control at 250 g/ha [2, 16] was 100%, the pest or weed control at 250 g/ha [3, 17] was 100% and the pest or weed control at 250 g/ha [3, 18] was 90%. The pest or weed control at 250 g/ha [4, 19] was 100% and the pest or weed control at 250 g/ha [4, 20] was 100%.
In the case of CC#Cc1cc(C)c(C2C(=O)CC(CC(=O)NCC(C)C)C2=O)c(C)c1 (stereo not drawn) [Compound A30], the pest or weed control at 250 g/ha ([1]; post-emergence, 360 h, Rate 250 g/ha, post-emergence, assessed visually 15 DAA, 100%=total damage, 0%=no damage, read-out: Post-emergence herbicidal activity (percentage phytotoxicity) AVEFA POST) was 100%, the pest or weed control at 250 g/ha ([1]; pre-emergence, 480 h, Rate 250 g/ha, pre-emergence, assessed visually 20 DAA, 100%=total damage, 0%=no damage, read-out: Pre-emergence herbicidal activity (percentage phytotoxicity) AVEFA PRE) was 100% and the pest or weed control at 250 g/ha ([2]; post-emergence, 360 h, Rate 250 g/ha, post-emergence, assessed visually 15 DAA, 100%=total damage, 0%=no damage, read-out: Post-emergence herbicidal activity (percentage phytotoxicity) ALOMY POST) was 100%. For the same compound, the pest or weed control at 250 g/ha ([2]; pre-emergence, 480 h, Rate 250 g/ha, pre-emergence, assessed visually 20 DAA, 100%=total damage, 0%=no damage, read-out: Pre-emergence herbicidal activity (percentage phytotoxicity) ALOMY PRE) was 100%, the pest or weed control at 250 g/ha ([3]; post-emergence, 360 h, Rate 250 g/ha, post-emergence, assessed visually 15 DAA, 100%=total damage, 0%=no damage, read-out: Post-emergence herbicidal activity (percentage phytotoxicity) LOLPE POST) was 100% and the pest or weed control at 250 g/ha ([3]; pre-emergence, 480 h, Rate 250 g/ha, pre-emergence, assessed visually 20 DAA, 100%=total damage, 0%=no damage, read-out: Pre-emergence herbicidal activity (percentage phytotoxicity) LOLPE PRE) was 100%. The pest or weed control at 250 g/ha ([4]; post-emergence, 360 h, Rate 250 g/ha, post-emergence, assessed visually 15 DAA, 100%=total damage, 0%=no damage, read-out: Post-emergence herbicidal activity (percentage phytotoxicity) ECHCG POST) was 100% and the pest or weed control at 250 g/ha ([4]; pre-emergence, 480 h, Rate 250 g/ha, pre-emergence, assessed visually 20 DAA, 100%=total damage, 0%=no damage, read-out: Pre-emergence herbicidal activity (percentage phytotoxicity) ECHCG PRE) was 100%.
C=CC(C)NC(=O)CC1CC(=O)C(c2c(C)cc(-n3cc(Cl)cn3)cc2C)C1=O (stereo not drawn) [Compound B316] showed a pest or weed control at 250 g/ha [1, 13] of 100%, a pest or weed control at 250 g/ha [1, 14] of 80% and a pest or weed control at 250 g/ha [2, 15] of 90%. For the same compound, the pest or weed control at 250 g/ha [2, 16] was 90%, the pest or weed control at 250 g/ha [3, 17] was 90% and the pest or weed control at 250 g/ha [3, 18] was 80%. For the same compound, the pest or weed control at 250 g/ha [4, 19] was 100% and the pest or weed control at 250 g/ha [4, 20] was 90%.
